In the supplement of paper PMC10307832:

How the values were obtained:
Experiment in all cases: relative viability (nuclei count vs DMSO), 5 days (fraction); higher = more cells survive
Selisistat + OSI-027 = compound: C1CC(C2=C(C1)C3=C(N2)C=CC(=C3)Cl)C(=O)N [Selisistat] + COc1cccc2cc(-c3nc([C@H]4CC[C@H](C(=O)O)CC4)n4ncnc(N)c34)[nH]c12 [OSI-027] (partner 0.5 µM)
Summary of the method: (§1)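 Medians of duplicate plates are given as relative viability. That measure is the nuclei count in treated wells divided by the count in vehicle wells. Counts were taken on 4× images of lung cancer cell lines in 1536-well plates, 5 days after pin-tool dosing the day after seeding with one drug alone or a fixed anchor-drug dose plus five library-drug doses (not always all listed) in √10 steps.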

Selisistat + Linsitinib = compound: C1CC(C2=C(C1)C3=C(N2)C=CC(=C3)Cl)C(=O)N [Selisistat] + C[C@]1(O)C[C@@H](c2nc(-c3ccc4ccc(-c5ccccc5)nc4c3)c3c(N)nccn32)C1 [Linsitinib] (partner 1 µM)
Summary of the method: as §1

Selisistat + Phenformin = compound: C1CC(C2=C(C1)C3=C(N2)C=CC(=C3)Cl)C(=O)N [Selisistat] + N=C(N)NC(=N)NCCc1ccccc1 [Phenformin] (partner 250 µM)
Summary of the method: as §1

Serdemetan + Luminespib = compound: c1ccc2c(CCNc3ccc(Nc4ccncc4)cc3)c[nH]c2c1 [Serdemetan] + CCNC(=O)c1noc(-c2cc(C(C)C)c(O)cc2O)c1-c1ccc(CN2CCOCC2)cc1 [Luminespib] (partner 0.01 µM)
Summary of the method: as §1

Cell Line	relative viability (Selisistat + OSI-027; first compound 0.4 µM)	relative viability (Selisistat + OSI-027; first compound 12.65 µM)	relative viability (Selisistat + OSI-027; first compound 40 µM)	relative viability (Selisistat + Linsitinib; first compound 0.4 µM)	relative viability (Selisistat + Linsitinib; first compound 1.265 µM)	relative viability (Selisistat + Linsitinib; first compound 4 µM)	relative viability (Selisistat + Linsitinib; first compound 12.65 µM)	relative viability (Selisistat + Linsitinib; first compound 40 µM)	relative viability (Selisistat + Phenformin; first compound 0.4 µM)	relative viability (Selisistat + Phenformin; first compound 4 µM)	relative viability (Selisistat + Phenformin; first compound 12.65 µM)	relative viability (Selisistat + Phenformin; first compound 40 µM)	relative viability (Serdemetan + Luminespib; first compound 0.04 µM)	relative viability (Serdemetan + Luminespib; first compound 0.1265 µM)	relative viability (Serdemetan + Luminespib; first compound 0.4 µM)	relative viability (Serdemetan + Luminespib; first compound 1.265 µM)	relative viability (Serdemetan + Luminespib; first compound 4 µM)	relative viability (Selisistat + OSI-027; first compound 1.265 µM)	relative viability (Selisistat + OSI-027; first compound 4 µM)	relative viability (Selisistat + Phenformin; first compound 1.265 µM)
HCC-44	0.591	0.457	0.586	0.707	0.698	0.669	0.662	0.753	0.159	0.168	0.226	0.353	0.894	1.08	1.01	0.906	0.901			
HCC-827	0.763	0.746	0.768	0.873	0.873	0.941	0.948	1.01	0.448	0.428	0.395	0.432	0.606	0.563		0.288	0.344	0.766	0.705	0.399
NCI-H1623	0.421	0.46	0.451						0.557	0.413	0.579	0.533	0.498	0.481	0.432	0.551	0.427	0.413	0.366	0.556
NCI-H2347	0.61	0.482	0.46	1.05	0.999	0.733	0.973	0.979	0.4	0.228	0.382	0.276	1.08	0.56	0.215	0.264	0.292	0.403	0.246	0.438
PC-14	0.973	0.819	0.931	0.951	1.05	0.963	0.946	0.951	0.522	0.314	0.488	0.643	0.129	0.163		0.149	0.107	0.783	0.755	0.415
NCI-H1651	0.605	0.674	0.764	0.936	0.898	1.02	1.05	0.849	0.381	0.274	0.307	0.284	0.714	0.591	0.457	0.473	0.273	0.744	0.705	0.293
HARA	0.632	0.508	0.477	0.938	0.917	0.854	0.844	0.983	0.412	0.412	0.396	0.379	0.767	0.604	0.606	0.303	0.199	0.405	0.382	0.476
NCI-H1650	0.633	0.534	0.611						0.375	0.336	0.361	0.465	0.212	0.213	0.205	0.177	0.184	0.517	0.551	0.448
NCI-H1395	0.691	0.502	0.622	1.16	1.28	1.02	1	0.521	0.509	0.427	0.42	0.42	0.651	0.671	0.673	0.6	0.459	0.675	0.53	0.432
LU99A	0.345	0.288	0.297	0.537	0.608	0.657	0.516	0.485	0.897	0.956	0.806	0.832	0.26	0.259	0.185	0.182	0.193	0.283	0.344	0.956
NCI-H1355	0.465	0.407	0.404	0.903	0.838		0.974	0.996	0.488	0.433	0.465	0.462	0.671	0.667	0.609	0.353	0.449	0.426	0.281	0.486
HCC-78	0.379	0.382	0.359	0.571	0.483	0.553	0.537	0.437	0.774	0.54	0.685	0.744						0.346	0.316	0.815
NCI-H1563	0.761	0.655	0.703	1.08	1.15	1.17	1.07	0.83	0.662	0.63	0.638	0.585	0.499	0.481	0.555	0.458	0.436	0.761	0.76	0.658
HCC-15	0.81	0.622	0.618	1.03	0.918		0.902	0.696	0.515		0.44	0.501	0.362	0.33	0.281	0.348	0.288	0.676		0.524
EKVX	0.756	0.69	0.697	1.14	0.982	0.983	0.914	0.939	0.221	0.222	0.23	0.249	0.947	0.925	0.861		0.585	0.754	0.689	0.243
NCI-H2087	0.646	0.516	0.652	0.953	0.957	0.885	0.737	0.818	0.54		0.44	0.472	0.176	0.147	0.168	0.184	0.123	0.645		0.455
LK-2	0.196	0.179	0.255	0.265	0.437	0.341	0.519	0.619	0.577	0.385	0.382	0.387	0.18	0.172	0.191	0.161	0.2	0.179	0.174	0.373
NCI-H1437	0.908	0.891	0.783	1.11	0.981	1.09	0.986	0.89	0.354	0.278	0.29	0.308	1.11	1	1.06	1.02	0.788	0.915	0.631	0.317
COR-L23	0.866	0.653	0.653	1.04	0.872	1.04	0.899	0.876	0.443	0.458	0.424	0.441	0.724	0.639	0.644	0.631	0.432	0.803	0.799	0.43
ABC-1	0.499	0.442	0.436	0.649	0.652	0.788	0.726	0.721	0.221	0.265	0.265	0.263	0.581	0.648	0.515	0.567	0.516	0.447	0.331	0.213

Cell Line	relative viability (Selisistat + OSI-027; first compound 0.4 µM)	relative viability (Selisistat + OSI-027; first compound 12.65 µM)	relative viability (Selisistat + OSI-027; first compound 40 µM)	relative viability (Selisistat + Linsitinib; first compound 0.4 µM)	relative viability (Selisistat + Linsitinib; first compound 1.265 µM)	relative viability (Selisistat + Linsitinib; first compound 4 µM)	relative viability (Selisistat + Linsitinib; first compound 12.65 µM)	relative viability (Selisistat + Linsitinib; first compound 40 µM)	relative viability (Selisistat + Phenformin; first compound 0.4 µM)	relative viability (Selisistat + Phenformin; first compound 4 µM)	relative viability (Selisistat + Phenformin; first compound 12.65 µM)	relative viability (Selisistat + Phenformin; first compound 40 µM)	relative viability (Serdemetan + Luminespib; first compound 0.04 µM)	relative viability (Serdemetan + Luminespib; first compound 0.1265 µM)	relative viability (Serdemetan + Luminespib; first compound 0.4 µM)	relative viability (Serdemetan + Luminespib; first compound 1.265 µM)	relative viability (Serdemetan + Luminespib; first compound 4 µM)	relative viability (Selisistat + OSI-027; first compound 1.265 µM)	relative viability (Selisistat + OSI-027; first compound 4 µM)	relative viability (Selisistat + Phenformin; first compound 1.265 µM)
SW 900	0.447	0.495	0.484						0.632	0.468	0.484	0.641	0.185	0.168	0.196	0.164	0.176	0.57	0.462	0.621
NCI-H838	0.449	0.407	0.409	1.06	1.06	1.03	1.06	1.06	0.62	0.346	0.547	0.57	0.266	0.319	0.383	0.2	0.328	0.368	0.295	0.478
NCI-H1648	0.274	0.237	0.277															0.274	0.264	
A549				0.664	0.587	0.484	0.649	0.622	0.192		0.123	0.145								0.17
A-427	0.455	0.421	0.57	1.21	1.05	1.1	1.15	1.15	0.261	0.266	0.255	0.327	0.934	0.924	0.953	0.742	0.49	0.432	0.301	0.383
NCI-H1792	0.745	0.644	0.689	0.548	0.594		0.438	0.635	0.301		0.324	0.224	0.471	0.407	0.422	0.415	0.298	0.68		0.357
LCLC-97TM1	0.59	0.553	0.619	0.166	0.156	0.193	0.167	0.245	0.426		0.362	0.461	0.739	0.738	0.653		0.596	0.653		0.409
NCI-H1703				0.316	0.703	0.627	0.724	0.932												
LCLC-103H	0.486	0.479	0.442	1.13	1.15	1.07	1.03	1.01	0.339	0.334	0.351	0.355	0.971	1.03	1	0.975	0.751	0.469	0.348	0.338
PC-3 [JPC-3]	0.931	0.662	0.731	1.01	0.968	0.954	1	0.987	0.488	0.48	0.487	0.48	0.651	0.612	0.621	0.654	0.494	0.776	0.739	0.481
BEN	0.263	0.282	0.274	0.971	0.986	0.812	0.762	0.827	0.246	0.256	0.239	0.275	0.24	0.2	0.461		0.329	0.251	0.282	0.286
ChaGo-K-1	0.588	0.535	0.617						0.488	0.439	0.422	0.485	0.688	0.463	0.445	0.27	0.227	0.461	0.492	0.458
Calu-6				0.932	0.964	0.981	0.975	0.939												
HCC-366	1.01	0.889	0.898	0.808	0.582	0.336	0.577	0.618	0.662	0.557	0.575	0.609						0.837	0.605	0.679
NCI-H2342	0.654	0.577	0.628						0.562	0.504	0.601	0.61	0.738	0.722	0.704	0.508	0.506	0.589	0.493	0.54
EBC-1				0.92	0.899	0.892	0.8	0.844												
NCI-H1299				1.06	1.01	0.996	0.974	0.991												
NCI-H522	0.744	0.756	0.681						0.695	0.469	0.61	0.687	1.15	1.42	1.25	0.873	1.45	0.677	0.61	0.61
IA-LM				0.632	0.581	0.436	0.4	0.694												
NCI-H2170	0.839	0.766	0.739						0.413	0.4	0.432	0.458	0.643	0.596	0.807	0.459	0.56	0.692	0.63	0.417
